Assay results reported in US11098052B2, “4-azapodophylotoxins compounds” (Arizona Board of Regents on behalf of Arizona State …, priority 2016, dated 2021).
Converted amounts (≈) assume the structure as drawn.

Tests used:
[1] = tested on: P388 murine lymphocytic leukemia cell line; settings: footnote c: See Ref 25; cited from earlier work
KM20L2 (colon) = test: Human cancer cell growth inhibition, sulforhodamine B assay, KM20L2; format: cell-based; settings: KM-20L2, 48 h, read-out: Growth Inhibition of Human Cancer Cell Lines (GI50), KM20L2
Experimental: (§1) Cancer Cell Line Procedures. The human cancer cell growth inhibition data were determined using the standard sulforhodamine B assay of the US National Cancer Institute as previously described.^35 In short, cells in a 5% fetal bovine serum/RPMI1640 medium were inoculated in 96-well plates and incubated for 24 h. Next, serial dilutions of the samples were added. After 48 h, the plates were fixed with trichloroacetic acid, stained with sulforhodamine B, and read with an automated microplate reader. A growth inhibition of 50% (GI50 or the drug concentration causing a 50% reduction in the net protein increase) was determined from optical density data employing Immunosoft® software.

NCI-H460 (lung) = test: Human cancer cell growth inhibition, sulforhodamine B assay, NCI-H460; format: cell-based; settings: NCI-H460, 48 h, read-out: Growth Inhibition of Human Cancer Cell Lines (GI50), NCI-H460
Experimental: as §1

SF-268 (CNS) = test: Human cancer cell growth inhibition, sulforhodamine B assay, SF-268; format: cell-based; settings: SF-268, 48 h, read-out: Growth Inhibition of Human Cancer Cell Lines (GI50), SF-268
Experimental: as §1

MCF-7 (breast) = test: Human cancer cell growth inhibition, sulforhodamine B assay, MCF-7; format: cell-based; settings: MCF7, 48 h, read-out: Growth Inhibition of Human Cancer Cell Lines (GI50), MCF-7
Experimental: as §1

[2] = tested on: P388 murine lymphocytic leukemia cell line; test: Murine P388 lymphocytic leukemia inhibitory activity; format: cell-based; settings: Mus musculus, P388, read-out: Murine P388 Lymphocytic Leukemia Inhibitory Activity (ED50)
DU-145 (prostate) = test: Human cancer cell growth inhibition, sulforhodamine B assay, DU-145; format: cell-based; settings: DU-145, 48 h, read-out: Growth Inhibition of Human Cancer Cell Lines (GI50), DU-145
Experimental: as §1

BXPC-3 (pancreas) = test: Human cancer cell growth inhibition, sulforhodamine B assay, BXPC-3; format: cell-based; settings: BXPC-3, 48 h, read-out: Growth Inhibition of Human Cancer Cell Lines (GI50), BXPC-3
Experimental: as §1

Row | SMILES | melting point | Murine P388 Lymphocytic Leukemia Inhibitory Activity (ED50) [1] [µg/mL] | GI50 (KM20L2 (colon)) [µg/mL] | GI50 (NCI-H460 (lung)) [µg/mL] | GI50 (SF-268 (CNS)) [µg/mL] | GI50 (MCF-7 (breast)) [µg/mL] | IC50 [2] [µg/mL] | GI50 (DU-145 (prostate)) [µg/mL] | GI50 (BXPC-3 (pancreas)) [µg/mL]
1 | COc1cc(C2C3=C(COC3=O)Nc3cc4c(cc32)OCO4)cc(OC)c1OC (stereo not shown) [Compound 15e, 6,7-Methylenedioxy-9-(3,4,5-trimethoxyphenyl)-4,9-dihydro-3H-furo[3,4-b]quinolin-1-one] | 273 to 275 °C | 0.0018 | – | – | – | – | – | – | –
2 | COc1cc(C2C3=C(COC3=O)N(CCc3ccc(F)cc3)c3cc4c(cc32)OCO4)cc(OC)c1OC (stereo not shown) [Compound 25, 6,7-Methylenedioxy-4-[2-(4-fluorophenyl)-ethyl]-9-(3,4,5-trimethoxyphenyl)-4,9-dihydro-3H-furo[3,4-b]quinolin-1-one] | 174 to 177 °C | – | 2.4 (≈ 4.62 µM) | 2.3 (≈ 4.43 µM) | 0.52 (≈ 1 µM) | 0.42 (≈ 0.808 µM) | 3.3 (≈ 6.35 µM) | 2.5 (≈ 4.81 µM) | 0.9 (≈ 1.73 µM)
3 | COc1cc(C2C3=C(COC3=O)N(CCc3ccc(Cl)cc3)c3cc4c(cc32)OCO4)cc(OC)c1OC (stereo not shown) [Compound 26, 6,7-Methylenedioxy-4-[2-(4-chlorophenyl)-ethyl]-9-(3,4,5-trimethoxyphenyl)-4,9-dihydro-3H-furo[3,4-b]quinolin-1-one] | 170 to 173 °C | – | 0.37 (≈ 0.69 µM) | 0.3 (≈ 0.56 µM) | 0.35 (≈ 0.653 µM) | 0.34 (≈ 0.634 µM) | 2.6 (≈ 4.85 µM) | 0.31 (≈ 0.578 µM) | 0.54 (≈ 1.01 µM)
4 | COc1cc(C2C3=C(COC3=O)N(CCc3ccc([N+](=O)[O-])cc3)c3cc4c(cc32)OCO4)cc(OC)c1OC (stereo not shown) [Compound 27, 6,7-Methylenedioxy-4-[2-(4-nitrophenyl)-ethyl]-9-(3,4,5-trimethoxyphenyl)-4,9-dihydro-3H-furo[3,4-b]quinolin-1-one] | 188 to 190 °C | – | 0.26 (≈ 0.476 µM) | 0.3 (≈ 0.549 µM) | 0.2 (≈ 0.366 µM) | 0.08 (≈ 0.146 µM) | 34.8 (≈ 63.7 µM) | 0.3 (≈ 0.549 µM) | 0.39 (≈ 0.714 µM)
5 | COc1cc(C2C3=C(COC3=O)N(CCCn3ccnc3)c3cc4c(cc32)OCO4)cc(OC)c1OC (stereo not shown) [Compound 28, 6,7-Methylenedioxy-4-(3-imidazol-1-yl-propyl)-9-(3,4,5-trimethoxyphenyl)-4,9-dihydro-3H-furo[3,4-b]quinolin-1-one] | 206 °C (dec.) | – | 2.2 (≈ 4.35 µM) | 3 (≈ 5.93 µM) | 2.5 (≈ 4.95 µM) | 0.64 (≈ 1.27 µM) | 2 (≈ 3.96 µM) | 2.1 (≈ 4.15 µM) | 2.9 (≈ 5.74 µM)
